# Where two headings read alike, the source gives them in different places.
# How the values were obtained:
# MRSA USA300 = assay: Broth microdilution MIC, initial antibacterial screening; assay type: cell-based, S. aureus; conditions: Staphylococcus aureus; MRSA USA300; read-out: MIC
# Summary of the method: (§1)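 Broth microdilution per CLSI with ~5 × 10^5 CFU/mL inoculum and serially diluted compounds. S. aureus and E. coli were tested in CAMHB, aerobic, 37 °C, 18–20 h; C. difficile in supplemented brain heart infusion broth (yeast extract, hemin, vitamin K), anaerobic, 37 °C, 48 h. MIC read as visible growth.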
# Candida auris = assay: Checkerboard assay of compound 17 with standard antifungals; assay type: cell-based; conditions: for MIC: Candidozyma auris, checkerboard, agent alone
# [1] = system: C. difficile ATCC BAA1870; assay: Broth microdilution MIC, initial antibacterial screening (anaerobic); assay type: cell-based, Clostridioides difficile; conditions: Clostridioides difficile, ATCCBAA1870, read-out: MIC
# Summary of the method: as §1
# [2] = system: E. coli JW55031 (tolC-mutant); assay: microbe, parasite or virus in culture; assay type: cell-based, Escherichia coli; conditions: Escherichia coli
# Summary of the method: as §1
# [3] = system: Lactobacillus gasseri HM-400; assay: Broth microdilution MIC against normal human microbiota; assay type: cell-based; conditions: HM400; Lactobacillus gasseri HM-400; read-out: MIC
# Protocol: (§2) Broth microdilution was utilized to determine the activity of bisphenylthiazoles against the human gut microflora as described elsewhere. A bacterial solution equivalent to 0.5 McFarland standards was prepared and diluted in MRS broth to achieve a bacterial concentration of approximately 5 x 10^5 CFU/mL. Then, compounds/control antifungals (in triplicates), were added to the plates and serially diluted with media containing bacteria. The plates were incubated for 48 hours at 37 °C before recording the MIC values. The experiment was repeated three independent times.
# [4] = system: Lactobacillus crispatus HM-370; assay: as above; assay type: cell-based; conditions: HM370; Lactobacillus crispatus HM-370; read-out: MIC
# Protocol: as §2
# [5] = system: Lactobacillus casei ATCC-334; assay: as above; assay type: cell-based; conditions: Lacticaseibacillus casei, ATCC334; Lactobacillus casei ATCC-334; read-out: MIC
# Protocol: as §2
# Candida strains = assay: Minimum fungicidal concentration, summary over Candida strains; assay type: cell-based; conditions: strains of Table 6
# Protocol: (§3) Serial dilutions (from 128 μg/mL to 0.06 μg/mL) of the tested compounds and control drugs (fluconazole, itraconazole and amphotericin) (in triplicates), were screened against clinical isolates of Candida albicans, Candida auris, Candida glabrata, Candida parapsilosis, Candida tropicalis, Candida krusei, Cryptococcus neoformans, Cryptococcus gattii and Aspergillus fumigatus species using the broth microdilution method according to the Clinical and Laboratory Standards Institute guidelines. MICs were determined as the lowest concentration of the compounds that inhibited the fungal growth by 50% after incubation at 35 °C for 24 h (for Candida and Aspergillus), or 48 h (for Cryptococcus). The minimum fungicidal concentration (MFC) of these compounds was tested by plating 4 μL from wells with no growth onto YPD agar plates. The plates were incubated at 37 °C for 24 hours before recording the MFC, which was categorized as the lowest concentration that reduced fungal growth by 99.9% [45]. The experiment was repeated three independent times.
# Cryptococcus neoformans = assay: Antifungal broth microdilution MIC (50% growth inhibition, 48 h); assay type: cell-based; conditions: Cryptococcus neoformans, read-out: MIC
# Protocol: as §3
# Cryptococcus gattii = assay: as above; assay type: cell-based; conditions: Cryptococcus gattii, read-out: MIC
# Protocol: as §3
# [6] = system: monkey kidney epithelial cells (Vero); assay: In vitro cytotoxicity, MTS assay
# Protocol: (§4) Fig 2 In vitro cytotoxicity assay of bisphenylthiazole compounds 7, 16 and 17 (tested in triplicates at 32, 64 and 128 μg/mL) against: A) human colorectal cells (Caco-2), and B) monkey kidney epithelial cells (Vero) after 24-hours exposure time, using the MTS 3-(4,5-dimethylthiazol-2-yl)-5-(3-carboxymethoxyphenyl)-2-(4-sulfophenyl)-2H-tetrazolium) assay. The data represent the percentage of viable Caco-2 or Vero cells measured as the average absorbance relative to DMSO after exposure to the tested compounds. Dimethyl sulfoxide (DMSO) was used as a negative control. Error bars represent the standard deviation values.
# (§5) To explore the tolerability of bisphenylthiazoles, their cytotoxicity profile was assessed in human colorectal adenocarcinoma (Caco-2) and monkey kidney epithelial cells (Vero) as described earlier. Briefly, compounds were incubated with the cells for 24 hours. Then, cells were incubated with MTS reagent for 3 hours before measuring the absorbance values (OD490). The experiment was repeated in two independent times.
# [7] = system: human colorectal cells (Caco-2); assay: In vitro cytotoxicity, MTS assay; conditions: human, 24 h
# Protocol: as §4, §5
# Aspergillus fumigatus = assay: Antifungal broth microdilution MIC (50% growth inhibition); assay type: cell-based; conditions: Aspergillus fumigatus
# Summary of the method: (§6)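 Clinical isolates were tested in triplicate by CLSI broth microdilution over 128–0.06 μg/mL. MIC was the lowest concentration giving 50% growth inhibition after 35 °C incubation, 24 h for Candida, 48 h for Cryptococcus. For MFC, wells without growth were plated on YPD agar, 37 °C for 24 hours; MFC meant 99.9% growth reduction.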
# Candida parapsilosis = assay: as above; assay type: cell-based; conditions: Lodderomyces parapsilosis, read-out: MIC
# Summary of the method: as §6
smiles,measurement,setting,value
"Cc1nc(-c2ccc(-c3ccccc3)cc2)sc1-c1nnc(N[C@@H]2CCCC[C@@H]2N)o1 (relative stereo) [Compound 17, cis-N-{5-[2-((1,1’-Biphenyl)-4-yl)-4-methylthiazol-5-yl]-1,3,4-oxadiazol-2-yl}cyclo-hexane-1,2-diamine]",MIC,MRSA USA300,> 64 µg/mL
same,"MIC Combined, 17","Candida auris; Candida auris 381, compound 17 in combination with 5-Fluorocytosine",0.25 µg/mL
same,"MIC Combined, 17","Candida auris; Candida auris 381, compound 17 in combination with Amphotericin B",0.25 µg/mL
same,"MIC Combined, 17","Candida auris; Candida auris 381, compound 17 in combination with Caspofungin",0.25 µg/mL
same,"MIC Combined, 17","Candida auris; Candida auris 381, compound 17 in combination with Fluconazole",0.25 µg/mL
same,"MIC Combined, 17","Candida auris; Candida auris 385, compound 17 in combination with 5-Fluorocytosine",0.25 µg/mL
same,"MIC Combined, 17","Candida auris; Candida auris 385, compound 17 in combination with Amphotericin B",0.25 µg/mL
same,"MIC Combined, 17","Candida auris; Candida auris 385, compound 17 in combination with Caspofungin",0.25 µg/mL
same,"MIC Combined, 17","Candida auris; Candida auris 385, compound 17 in combination with Fluconazole",2 µg/mL
same,MIC,Candida auris; Candida auris 381 (azole-sensitive),1 µg/mL
same,MIC,Candida auris; Candida auris 385 (azole-resistant),2 µg/mL
same,relationship when combined with antifungals,"Candida auris; combined with either fluconazole, 5-fluorocytosine or caspofungin, two tested C. auris isolates",additive
same,MIC,[1],64 µg/mL
same,MIC,[2],> 64 µg/mL
same,MIC,[3],128 µg/mL
same,MIC,[4],> 128 µg/mL
same,MIC,[5],128 µg/mL
same,fungistatic or fungicidal activity,Candida strains,fungistatic
same,melting point,,145 to 146 °C
same,MIC,Cryptococcus neoformans; C. neoformans NR 41298,1 µg/mL
same,MIC,Cryptococcus neoformans; C. neoformans NR 41300,1 µg/mL
same,MIC,Cryptococcus neoformans; C. neoformans NR 48770,1 µg/mL
same,MIC,Cryptococcus gattii; C. gattii NR 43209,0.5 µg/mL
same,MIC,Cryptococcus gattii; C. gattii NR 43210,0.5 µg/mL
same,concentration up to which non-toxic,"[6]; Vero, 24 h exposure, MTS",≤ 64 µg/mL
same,times more tolerable than amphotericin B,[6]; relative to amphotericin B,16 times
same,concentration up to which non-toxic,[7],≤ 64 µg/mL
same,MIC,"Aspergillus fumigatus; A. fumigatus NR 35303, read-out: MIC",4 µg/mL
same,MIC,"Aspergillus fumigatus; A. fumigatus NR 35304, read-out: MIC",4 µg/mL
same,MIC,"Aspergillus fumigatus; tested A. fumigatus isolates (Table 5), read-out: MIC against Aspergillus fumigatus",4 µg/mL
same,MIC,"Candida parapsilosis; ATCC22019, C. parapsilosis ATCC 22019",1 µg/mL
same,MIC,Candida parapsilosis; C. parapsilosis CAB 502638,1 µg/mL
